The results in this text go back to patent publication US10772840B2 (Charleston Laboratories, Inc., priority 2016, dated 2020).

The data set can be described thus: Impurity profile (related substances) by HPLC, initial and after one month at 40° C. (stability study). The data set is classed as physicochemical. The conditions noted are these: HPLC percent area. As to the method: The percentages of related substances were measured using an HPLC.
Stock promethazine HCl selectivity solution was prepared by accurately weighing about 2 mg of EP promethazine for peak identification CRS and transferring into 1 mL of diluent (prepared by mixing 750 mL of mobile phase A and 250 mL of acetonitrile), followed by vortexing to dissolve.
Ten capsules were randomly selected and weighed. The contents of the ten capsules were emptied into a 500 mL volumetric flask. 300 mL of diluent was added and the mixture was sonicated in an ice bath for 40 minutes or until completely disintegrated with intermittent swirling. The temperature was equilibrated to room temperature and more diluent was added to volume.
Promethazine HCl impurity sample solution: stock solution sample was filtered through a 0.45 μm PVDF membrane, syringe filter or a 0.45 μm PTFE w/GMF membrane, syringe filter discarding the first 5 mL and collecting approximately 20 mL into an appropriate glass container. Fill an HPLC vial with the filtrate
The RT of the promethazine in the promethazine HCl selectivity solution is between 44.1 and 53.9.
Mobile Phase B: 0.2% TFA in Acetonitrile, which was prepared by mixing well 2.0 ml of trifluoroacetic acid to 1 L of acetonitrile; and Gradient used was as follows in Table 15.
All known and unknown impurities were calculated via percent area as follow:
[formula] Where: • Ru=Peak area of related substance in the sample solution • Rt=Sum of peak area of promethazine or sumatriptan and all related substances areas corresponding to respective peak in sample solution • RRF=Relative Response Factor for related substances
The formulation was examined for its stability after one month at 40° C.

Structures can show the parent of a compound that is named as a salt.

As to `CC(CN1c2ccccc2Sc2ccccc21)N(C)C` (centres unmarked) [Promethazine, Promethazine Hydrochloride], the “Impurity percentages, all related substances combined” value (in a capsule stored at 40° C. for 1 month) is reported as 0.2% and the “Impurity percentages, all related substances combined” value (in a capsule, initial (before storage)) came out at 0.3%.
